The nature of this series: gradient 5% acetonitrile 3 min, to 50% in 2 min, to 85% in 15 min, held 3 min, 100 µL/min. The conditions noted are these: column: Zorbax Extend-C18 2.1 x 50 mm; eluents: water / acetonitrile, 0.1% formic acid. A digest of the protocol:
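Retention times of pure standards were taken from adduct peaks that were selected by computer and manually inspected. Over 3 months, mixtures of ~100 molecules were run by HPLC–quadrupole time-of-flight mass spectrometry in positive and negative ionization mode. The Zorbax Extend-C18 column (2.1 × 50 mm, 1.8 μm) ran at 100 μL/min in water and acetonitrile, each containing 0.1% formic acid, with 40 μL dead volume and 900 μL dwell volume.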
`COc1ccc(N2CCN(C(=O)c3csc(-c4ccc(N5CCCC5)nc4)n3)CC2)cc1` displayed an RP-LC retention time of 651 s.

As to `Nc1cc(C2CCN(C(=O)Nc3ccc(Br)cc3)CC2)no1`, the RP-LC retention time was 732 s.

Compound `CCOC(=O)c1cnc2nc(C)ccc2c1Nc1ccc(C)c(F)c1` came in with an RP-LC retention time of 736 s.

In turn, `CN(C)C[C@@H]1CN(c2ccncn2)C[C@H]1NC(=O)c1ccc2ncccc2c1` came in with an RP-LC retention time of 652 s.

As for `CCCn1cc(CCNS(=O)(=O)c2ccccc2C)c2cccnc21`, the RP-LC retention time worked out at 830 s.

In the case of `COc1ccc(N(CC(O)CNCCC(C)C)S(=O)(=O)c2ccc(C)cc2)cc1` (stereo not drawn), the RP-LC retention time was 620 s.

`Cc1ccc2c(=O)c3c([nH]c2c1C)CCN(CC(=O)Nc1cc(F)cc(F)c1)C3`: the RP-LC retention time worked out at 638 s.

`CCn1cc(C)c(C(=O)O)c1CC(=O)NCc1ccc2c(c1)OCO2` gave an RP-LC retention time of 734 s.

Consider `CSc1cccc(NC(=O)Cn2c(N3CCOCC3)nc(C)cc2=O)c1`, for which the RP-LC retention time stood at 694 s.

`Cc1ccc(-n2c(N3CCCC(C(=O)Nc4ccc(F)c(F)c4)C3)nc3ccsc3c2=O)cc1` (stereo not drawn) gave an RP-LC retention time of 1050 s.

With `CN(C(=O)Cn1nc2n(c1=O)CCCCC2)c1ccccc1`, the RP-LC retention time amounted to 655 s.

Compound `Cn1cccc1Cc1nnc(SCC(=O)NO)n1Cc1ccccc1` came in with an RP-LC retention time of 621 s.

For the compound `N#Cc1ccccc1CN1CCC2(CCC2N2CCOCC2)CC1` (stereo not drawn), the RP-LC retention time stood at 690 s.

For `COc1ccc(CNC(=O)Cc2csc3nc(-c4cccc(Br)c4)cn23)cc1`, the RP-LC retention time came out at 886 s.

The compound `Cc1ccc(CNC(=O)c2cc(NC(=O)C(C)C)cc3nc(C)ccc23)cc1` had an RP-LC retention time of 680 s.

The compound `Cc1cc2nnc(SCC(=O)c3cc(C)n(CC4CCCO4)c3C)n2c2ccccc12` (stereo not drawn) yielded an RP-LC retention time of 784 s.

With `Cc1ccc(N2CC(c3noc(-c4cccs4)n3)CC2=O)cc1` (stereo not drawn), the RP-LC retention time was determined as 946 s.

The compound `O=C(Nc1ccc2c(c1)OCCO2)C1CCCN(S(=O)(=O)c2c[nH]c(C(=O)N3CCCC3)c2)C1` (stereo not drawn) gave an RP-LC retention time of 756 s.

`CCOc1ccc(NC(=O)c2cnn(-c3ccc(Br)cc3)c2)cc1` showed an RP-LC retention time of 1030 s.

Take `COc1ccc(C2CC(=O)N(c3ccc(C)cc3C)C(=O)C2)cc1OC`: the RP-LC retention time stood at 889 s.

Compound `Fc1ccccc1-c1ccc(CNCc2ccc3c(c2)OCO3)o1` came in with an RP-LC retention time of 695 s.

`COc1cccc(C2Cn3nnc(-c4nc(-c5ccc(OCc6ccccc6)cc5)no4)c3CO2)c1` (stereo not drawn) registered an RP-LC retention time of 1340 s.

In turn, `COC(=O)c1nc(NC(=O)Cn2nc3c(cc2=O)CCCCC3)sc1C` showed an RP-LC retention time of 778 s.

On to `O=C(Cc1ccc(Cl)cc1)NCC1CCN(C2CCCC2)CC1`, for which the RP-LC retention time was determined as 566 s.

`Cc1ccc(Cl)cc1N1C(=O)CN(S(C)(=O)=O)CC1(C)C(=O)NC1CCCC1` (stereo not drawn) showed an RP-LC retention time of 838 s.

`Cc1nnc2c(=O)n(CC(=O)NCc3ccccc3F)c3cccnc3n12` displayed an RP-LC retention time of 649 s.

Compound `CCOC(=O)c1cccc(Nc2c(-c3ccc4c(c3)OCO4)nc3cnccn23)c1` yielded an RP-LC retention time of 834 s.

In the case of `Cc1sc(NC(=O)Cc2csc(-c3ccccc3)n2)nc1-c1cccc(Cl)c1`, the RP-LC retention time worked out at 1270 s.

As to `COCC(=O)NC1CCC12CCN(Cc1ccc(C)o1)CC2` (stereo not drawn), the RP-LC retention time amounted to 583 s.

Compound `CCOC(=O)c1ccc(NS(=O)(=O)c2cc(-c3c(CC)noc3NC(C)=O)ccc2C)cc1` gave an RP-LC retention time of 822 s.

Consider `Cc1ccccc1CNC(=O)C1CCCN1S(=O)(=O)c1cc2c(cc1C)NC(=O)CO2` (stereo not drawn), for which the RP-LC retention time was 732 s.

Compound `CCCCOC(=O)C1=CN(C)S(=O)(=O)N=C1C` yielded an RP-LC retention time of 875 s.

With `O=C(CC1CCN(C(=O)c2ccc3oc(-c4ccccc4)nc3c2)CC1)NCC1CCCO1` (stereo not drawn), the RP-LC retention time was found to be 718 s.

The compound `CCOC(=O)Cn1c(C2CC(=O)N(c3ccc(Cl)cc3)C2)nc2ccccc21` (stereo not drawn) showed an RP-LC retention time of 858 s.

On to `CCCN1CCn2cc(S(=O)(=O)Nc3ccccc3F)cc2C1=O`, for which the RP-LC retention time amounted to 718 s.

Consider `CCC(C)NC(=O)Cn1cnc2nc(N3CCCC(C(=O)NC4CC4)C3)sc2c1=O` (stereo not drawn), for which the RP-LC retention time turned out to be 610 s.

Compound `Nc1ccc(N2C(=O)c3ccccc3C2=O)c(Cl)c1` gave an RP-LC retention time of 884 s.

`CC1=NS(=O)(=O)N(C)C=C1C(=O)OCc1nc(-c2cccc(F)c2)no1` yielded an RP-LC retention time of 967 s.

Regarding `O=C(NCCC1CCN(C(=O)Nc2ccc(F)cc2F)CC1)C1CCC1`, the RP-LC retention time turned out to be 720 s.

Take `Cc1ccc(-c2noc(C3CC(=O)N(c4ccc(Cl)cc4)C3)n2)cc1` (stereo not drawn): the RP-LC retention time was found to be 1060 s.

Compound `CN1C(=O)c2cc(C(=O)Nc3cccc(F)c3)nn2CC1(C)C(=O)NC1CCCCCC1` (stereo not drawn) had an RP-LC retention time of 791 s.

As for `CCc1nc2cc(-c3noc(-c4ccc(C#N)cc4)n3)ccc2o1`, the RP-LC retention time worked out at 1050 s.

As to `CCCCN1CCCC1CNC(=O)c1cc(C#N)c2ccccc2c1OC` (stereo not drawn), the RP-LC retention time was found to be 781 s.

For the compound `Cc1ccc(C)c(S(=O)(=O)N2C[C@@H](F)C[C@H]2C(=O)N2CCCCC2)c1`, the RP-LC retention time amounted to 856 s.

Regarding `COc1ccc(-c2noc3ncnc(N4CCC(C(=O)N5CCC(C(N)=O)CC5)CC4)c23)cc1`, the RP-LC retention time is 656 s.

`COc1cccc(-c2cc(C(=O)N3CCN(c4ncccn4)CC3)n(C)n2)c1` yielded an RP-LC retention time of 754 s.

For the compound `O=C(NCc1ccc(F)cc1)N1CCCN(c2nc3cccnc3s2)CC1`, the RP-LC retention time amounted to 687 s.

Compound `Cc1cc(NC(=O)CSc2nc3ccccc3s2)no1` showed an RP-LC retention time of 810 s.

For the compound `COc1ccc(-c2cc3c(=O)n(Cc4nc(-c5ccccc5OC)oc4C)ccn3n2)cc1OC`, the RP-LC retention time was determined as 990 s.

In the case of `O=C(NCc1ccccc1)c1nc(Cn2c(=O)oc3ccccc32)no1`, the RP-LC retention time was found to be 880 s.

`COc1ccc(OCc2noc(CNC(=O)NCc3ccc(F)cc3)n2)cc1`: the RP-LC retention time came out at 770 s.

The compound `CCOc1ccc(N2CC(NC(=O)C(=O)c3c[nH]c4ccccc34)CC2=O)cc1` (stereo not drawn) showed an RP-LC retention time of 791 s.

Take `COc1ccc(C2Cn3nnc(-c4nc(-c5ccc(C(F)(F)F)cc5)no4)c3CO2)cc1` (stereo not drawn): the RP-LC retention time is 1270 s.

Regarding `CC1=C(c2ccc(F)cc2)S(=O)(=O)N=C1N1CCCN(C(=O)NC2CCCC2)CC1`, the RP-LC retention time was determined as 820 s.

For `O=C(C1CCN(c2nnc(-c3ccccc3)o2)CC1)N1CCN(C2CCCCC2)CC1`, the RP-LC retention time was 628 s.

For `O=C(NCCn1nc(-n2ccnc2)ccc1=O)c1cc(-c2ccccc2)on1`, the RP-LC retention time was found to be 572 s.

`CCn1nccc1-c1cccc(-c2noc(-c3ccc(Br)o3)n2)c1` had an RP-LC retention time of 1180 s.

As for `O=C(NCc1ccc(F)cc1)Nc1c(-c2ccc(F)cc2)nc2ccccn12`, the RP-LC retention time came to 663 s.

As for `CCOc1ccccc1CNC(=O)C1CCN(S(=O)(=O)c2cn(C(C)C)cn2)CC1`, the RP-LC retention time came out at 779 s.

Compound `c1ccc(-c2cn3c(n2)SCC3)cc1` had an RP-LC retention time of 549 s.

Compound `O=C(c1ccc(CN2C(=O)CSc3ncccc32)cc1)N1CCN(c2ccccn2)CC1` came in with an RP-LC retention time of 710 s.

Turning to `COc1ccc(N2CC(c3nc(-c4ccc(Br)cc4)no3)CC2=O)c(OC)c1` (stereo not drawn), the RP-LC retention time is 1040 s.

`Cc1nnc2cc(N3CCN(C(=O)Nc4ccc5c(c4)OCCO5)CC3)cnn12` gave an RP-LC retention time of 595 s.

`Cc1nc(-c2cccc(NC(=O)c3ccc(N4CCCC4)nn3)c2)cs1` had an RP-LC retention time of 676 s.

`Cc1nn(C)c(C)c1S(=O)(=O)N1[C@H]2CC[C@@H]1c1cnc(-c3ccccc3)nc1C2`: the RP-LC retention time stood at 865 s.

Consider `COc1ccc(NS(=O)(=O)c2cc(-c3[nH]ncc3C(=O)N3CCCC3)oc2C)cc1`, for which the RP-LC retention time is 676 s.

`O=C(Cn1nc2nc(N3CCOCC3)ccn2c1=O)Nc1ccc(F)c(F)c1` registered an RP-LC retention time of 666 s.

`O=C(Cn1c(=O)cc(-c2nc(C3CC3)no2)c2ccccc21)NC1CCCC1` returned an RP-LC retention time of 869 s.

`Cc1noc(-c2ccc(OC3CN(C(=O)Nc4cccc(F)c4)C3)cc2)n1` showed an RP-LC retention time of 838 s.

As to `CC(C)CCN1C(=O)CN(S(=O)(=O)c2ccccc2)CC1(C)C(=O)NCc1ccc(F)cc1` (stereo not drawn), the RP-LC retention time came out at 1030 s.

Compound `O=C(CSCCSCC(=O)Nc1ccccc1)Nc1ccccc1` came in with an RP-LC retention time of 775 s.

In turn, `CN1C(=O)c2cccnc2Sc2cc(C(=O)NCc3ccc(F)cc3)ccc21` displayed an RP-LC retention time of 765 s.

Take `Cc1cc(-c2nnc(-c3ccc(F)cc3)o2)c(C)n1CC(=O)NC(C)c1ccccc1` (stereo not drawn): the RP-LC retention time stood at 946 s.

For the compound `COc1ccc2cc1Oc1ccc(cc1)CC1c3c(cc(OC)c4c3Oc3cc5c(cc3O4)CCNC5C2)CCN1C` (stereo not drawn), the RP-LC retention time is 601 s.

Turning to `Cc1nn(-c2nc(CC(=O)N(CCO)Cc3ccccc3)cs2)c(C)c1Cl`, the RP-LC retention time came to 943 s.

`CCOc1ccc(-c2noc(Cn3c(=O)n(C(C)C)c(=O)c4ccccc43)n2)cc1OC` returned an RP-LC retention time of 1080 s.

The compound `CCOc1ccc(C(=O)N2CCC3(CC2)NC(=O)c2cc(Cl)ccc2N3C)cc1` came in with an RP-LC retention time of 853 s.

As for `CCOC(=O)N1CCN(Cc2nc(-c3ccc(N4CCCCC4)nc3)no2)CC1`, the RP-LC retention time worked out at 757 s.

These data come from the METLIN SMRT retention time set (Domingo-Almenara et al. 2019).
